For orientation: TGI means the concentration at which net growth stops. One may read the GI50 as the concentration that inhibits growth by half.

Among the test systems are A498 renal; SNB-75 CNS; A549 NSCLC; SF-295 CNS; NCI-H23 lung; LOX IMVI melanoma; COLO 205 colon; UACC-62 melanoma; MDA-MB-435; T-47D breast.
Common to all, as to assay: DTP human tumour cell line panel, 48 h

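Briefly, cells in 96-well plates were exposed to five compound concentrations for 48 h, and endpoints were estimated by linear interpolation. Abbreviation: GI50, concentration required for 50% inhibition of growth. Definition used: TGI = concentration required for complete inhibition of growth.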

In the case of `COc1cccc(Cc2c3cc(OC)ccc3cc[n+]2C)c1`, the concentration for total growth inhibition (TGI) in the test with A498 renal, in the test with SNB-75 CNS, in the test on A549 NSCLC, in the test with SF-295 CNS and with NCI-H23 lung was above 100 µM each time.
Turning to `O=[Se](=O)c1ccccc1.O=[Se](=O)c1ccccc1.[Cu]`, the GI50 was 20.1 µM with A498 renal; 22 µM in the test on SNB-75 CNS; 7.65 µM in the test with LOX IMVI melanoma; 26 µM in the test on A549 NSCLC; 18.5 µM with COLO 205 colon; 6.82 µM with UACC-62 melanoma. Besides, the GI50 in the test with SF-295 CNS is 16 µM; in the test with NCI-H23 lung, 13.5 µM. In addition, the TGI is 38 µM with A498 renal; 37.6 µM with SNB-75 CNS; 19.5 µM in the test on LOX IMVI melanoma; 52.2 µM in the test with A549 NSCLC; 35.4 µM in the test with COLO 205 colon; 18.9 µM in the test on UACC-62 melanoma. Further, the figures for the TGI in the test with SF-295 CNS and in the test on NCI-H23 lung were 29.8 µM and 30.1 µM, respectively.
`CC(=O)O[C@]12CCCC1C1(O)C(O)CCCC12` (some centres not stated): the TGI in the test on SNB-75 CNS, in the test with LOX IMVI melanoma, in the test on A549 NSCLC, in the test with COLO 205 colon, with UACC-62 melanoma and in the test with SF-295 CNS was above 100 µM in each case. In the test on NCI-H23 lung, this compound had a TGI above 100 µM.
In the case of `[N-]=[N+]=CC(=O)OCC1SCCCS1`, the TGI in the test with A498 renal, in the test with MDA-MB-435, in the test on LOX IMVI melanoma, with COLO 205 colon, in the test on UACC-62 melanoma and in the test on SF-295 CNS was above 100 µM each time. The compound further had a concentration for total growth inhibition (TGI) in the test on NCI-H23 lung above 100 µM.
Regarding `O=C(N/N=C/c1cc(Cl)cc(Cl)c1[O-])c1ccccc1O.O=C(N/N=C/c1cc(Cl)cc(Cl)c1[O-])c1ccccc1O.[Ni+2]`, the total growth inhibition concentration (TGI) turned out to be 7.48 µM in the test with SNB-75 CNS; 1.81 µM in the test on LOX IMVI melanoma; 3.33 µM in the test with A549 NSCLC; 11.6 µM in the test on COLO 205 colon; 0.693 µM in the test on UACC-62 melanoma; 1.24 µM in the test on SF-295 CNS. In the test on NCI-H23 lung, the TGI was 1.71 µM. In addition, the results for the 50% growth inhibitory concentration (GI50) in the test with A549 NSCLC, in the test with COLO 205 colon and in the test with NCI-H23 lung were 0.402 µM, 0.794 µM and 0.456 µM, respectively.
For the compound `C/C(=N\NC(N)=S)C(CN(CC(C)C)CC(C)C)C(=O)Nc1ccc(C)cc1C` (configuration not stated), the TGI with A498 renal, in the test on SNB-75 CNS, in the test on LOX IMVI melanoma, in the test on A549 NSCLC, in the test on COLO 205 colon and in the test on UACC-62 melanoma was above 100 µM in each case. The total growth inhibition concentration (TGI) with SF-295 CNS and in the test on NCI-H23 lung was above 100 µM each time.
`Cc1cc(S(=O)(=O)O)c(NC(=O)C(=O)C2C=CCS2(=O)=O)cc1Cl` (configuration not stated): the total growth inhibition concentration (TGI) in the test with A498 renal, with SNB-75 CNS, with LOX IMVI melanoma, with A549 NSCLC, in the test on COLO 205 colon and in the test with UACC-62 melanoma was above 100 µM throughout. Moreover, the TGI with SF-295 CNS and in the test on NCI-H23 lung was above 100 µM each time.
In the case of `N#C[S-].[Nd+3].c1ccc(-c2ccccn2)nc1.c1ccc(-c2ccccn2)nc1.c1ccc(-c2ccccn2)nc1`, the GI50 was 5.69 µM in the test with SNB-75 CNS; 4.23 µM in the test with LOX IMVI melanoma; 4.94 µM in the test on A549 NSCLC; 18.6 µM with COLO 205 colon; 5.26 µM in the test with UACC-62 melanoma; 2.35 µM in the test on SF-295 CNS. Moreover, the GI50 in the test on NCI-H23 lung was 25.8 µM. For the same compound, the concentration for total growth inhibition (TGI) was 84.4 µM in the test with SNB-75 CNS; above 100 µM in the test with LOX IMVI melanoma; above 100 µM in the test on A549 NSCLC; above 100 µM with COLO 205 colon; 28.2 µM in the test with UACC-62 melanoma; 5.8 µM in the test with SF-295 CNS. Further, in the test with NCI-H23 lung, the TGI is 98.7 µM.
Consider `CSC1=C(C#N)C(=O)N(c2ccc(C)cc2)C(=S)C1C#N` (configuration not stated), for which the concentration for total growth inhibition (TGI) in the test with A498 renal, with SNB-75 CNS, with MDA-MB-435, in the test on LOX IMVI melanoma, in the test on A549 NSCLC and in the test on COLO 205 colon was above 100 µM throughout. Besides, the TGI in the test with UACC-62 melanoma and in the test on SF-295 CNS was above 100 µM in each case.
`O=C1c2c(n(Cc3ccccc3)c(=O)n2Cc2ccccc2)C(=O)N1Cc1ccccc1`: the concentration for total growth inhibition (TGI) with A498 renal, in the test with SNB-75 CNS, in the test on LOX IMVI melanoma, in the test with A549 NSCLC, in the test with COLO 205 colon and with UACC-62 melanoma was above 100 µM throughout. In addition, the TGI in the test with SF-295 CNS and in the test with NCI-H23 lung was above 100 µM each time.
For `CCOC(=O)C(=Cc1ccc(C(=O)OC)cc1)C(=O)OCC`, the total growth inhibition concentration (TGI) in the test with A498 renal was determined as 26 µM; with SNB-75 CNS it was 4.65 µM; in the test on LOX IMVI melanoma, 3.55 µM; with A549 NSCLC it was 12.4 µM; in the test on COLO 205 colon it was 3.59 µM; in the test with UACC-62 melanoma, 5.47 µM. Besides, the concentration for total growth inhibition (TGI) with SF-295 CNS was 19.2 µM; in the test on NCI-H23 lung it was 3.36 µM.
On to `O=C(NC1CCN(Cc2ccccc2)CC1)c1cc2nc(-c3ccc(Cl)s3)cc(C(F)(F)F)n2n1`, for which the GI50 in the test with SNB-75 CNS was 10.5 µM; in the test on T-47D breast, 41.3 µM; in the test with MDA-MB-435, above 100 µM; in the test on A549 NSCLC, 79 µM; in the test with SF-295 CNS, above 100 µM; in the test with NCI-H23 lung it was above 100 µM. Further, the concentration for total growth inhibition (TGI) with SNB-75 CNS, in the test on T-47D breast, in the test with MDA-MB-435, with A549 NSCLC, with SF-295 CNS and with NCI-H23 lung was above 100 µM throughout.
For the compound `Cc1ccc(N2CCc3c(C)c(C#N)c4nc5ccccc5n4c32)cc1`, the TGI in the test with SNB-75 CNS is 62 µM; in the test on MDA-MB-435 it was above 100 µM; with LOX IMVI melanoma, above 100 µM; in the test with A549 NSCLC, above 100 µM; in the test with COLO 205 colon, above 100 µM; in the test with UACC-62 melanoma, above 100 µM. Besides, the TGI in the test on SF-295 CNS and in the test with NCI-H23 lung was above 100 µM each time.
As for `O=C(c1ccccc1)c1ccc2nc(-c3c(Cl)c(Cl)c(Cl)c(Cl)c3C(=O)N/N=C/c3ccccc3)[nH]c2c1`, the concentration for total growth inhibition (TGI) was 92.6 µM in the test on SNB-75 CNS; 74.3 µM in the test on T-47D breast; 90.8 µM in the test with MDA-MB-435; above 100 µM with LOX IMVI melanoma; above 100 µM in the test on A549 NSCLC; 39.3 µM in the test with COLO 205 colon. The TGI is 88.7 µM in the test with SF-295 CNS and 80.9 µM with NCI-H23 lung.

(Values after PubChem BioAssay (NCI).)
